Drawing on patent US7399769B2, “Aryl-isoxazol-4-yl-imidazo[1,5-a]pyridine derivatives” (Hoffmann-La Roche Inc., priority 2005, dated 2008), this text covers Ki for 1 compound.

The assay deals with T1, human GABA A receptor α5β3γ2 (hα5) (Homo sapiens, UniProt P18507+P31644).
T1 construct: expressed in transfected cells; host or cells: HEK293 (transient transfection); membranes prepared from cell pellets
Briefly: [3H]flumazenil competition binding, human GABA A α5β3γ2 receptors in HEK293 cells. To be noted: displacement of [3H]flumazenil 0.5 nM; HEK293 cells transiently transfected with human receptors; mean of two determinations. Here is the method:
Membrane Preparation and Binding Assay
The affinity of compounds at GABA A receptor subtypes was measured by competition for [3H]flumazenil (85 Ci/mmol; Roche) binding to HEK293 cells expressing rat (stably transfected) or human (transiently transfected) receptors of composition α1β3γ2, α2β3γ2, α3β3γ2 and α5β3γ2.
Cell pellets were suspended in Krebs-tris buffer (4.8 mM KCl, 1.2 mM CaCl2, 1.2 mM MgCl2, 120 mM NaCl, 15 mM Tris; pH 7.5; binding assay buffer), homogenized by polytron for ca. 20 sec on ice and centrifuged for 60 min at 4° C. (50000 g; Sorvall, rotor: SM24=20000 rpm). The cell pellets were resuspended in Krebs-tris buffer and homogenized by polytron for ca. 15 sec on ice. Protein was measured (Bradford method, Bio-Rad) and aliquots of 1 mL were prepared and stored at −80° C.
Radioligand binding assays were carried out in a volume of […] (96-well plates) which contained […] of cell membranes, [3H]flumazenil at a concentration of 1 nM for α1, α2, α3 subunits and 0.5 nM for α5 subunits and the test compound in the range of […]. Nonspecific binding was defined by 10^−5 M diazepam and typically represented less than 5% of the total binding. […] After drying, filter-retained radioactivity was detected by liquid scintillation counting. Ki values were calculated using Excel-Fit (Microsoft) and are the means of two determinations. […]

As for `Cc1onc(-c2ccccc2)c1-c1ncc2ccccn12` [Example 1, 3-(5-Methyl-3-phenyl-isoxazol-4-yl)-imidazo[1,5-a]pyridine], affinity was put at a Ki of 77.9 nM.
